Results from publication PMC12074917, “Molecular pharmacokinetic mechanism of JBP485 against aristolochic acid I (AAI) -induced nephrotoxicity” (Frontiers in Pharmacology, 2025).

System: rat kidney slices
Assay: In vitro uptake of AAI in kidney slices
Type: in vitro ADME
Conditions: AAI 1 μM, JBP485 500 μM
Procedure: Rat kidneys were cut into slices with a ZQP-86 tissue slicer (Zhixin Co. Ltd., China), as previously described ([Wang et al., 2014]). After preincubation for 3 min at 37°C, the kidney slices were transferred to 24-well culture plates containing 1 mL of fresh oxygenated buffer with AAI (1 μM) and/or JBP485 (500 μM) and further incubated at 37 °C with gentle shaking. After incubation for 5, 15, and 30 min, the slices were washed with ice-cold Hanks’ balanced salt solution (pH 7.5). The amount of AAI accumulated in the homogenized kidneys was determined by LC–MS/MS.
The concentrations of the test compounds in plasma, urine, and cell lysates were determined using an Agilent HP1200 liquid chromatography system (Agilent Technology Inc., SC, CA, United States) and an API 3200 triple-quadrupole mass spectrometer (Applied Biosystems, SC, CA, United States). After protein precipitation using acetonitrile, the analyte was separated on a Hypersil BDS C18 column. The mobile phase consisted of acetonitrile and water containing 0.1% (v/v) formic acid (80:20, v/v). The flow rate was 0.4 mL/min. The mass spectrometer was equipped with an electrospray ionization (ESI) source. Data were acquired in positive ion mode and dynamic multiple reaction monitoring (MRM) mode. […]

Compound: O=C1N[C@@H](CO)C(=O)N2C[C@H](O)C[C@@H]12 (relative stereo) [JBP485, cyclo-trans-4-L-hydroxyprolyl-L-serine]
- AAI uptake in kidney slices: inhibited
